Assay results reported in US20240360165A1, “INHIBITORS OF CYCLIN DEPENDENT KINASE 7 (CDK7)” (Syros Pharmaceuticals, Inc., priority 2016, published 2024).
Read-outs that look alike come from different tables or passages of the source.

Tests used:
[1] = biological target: T1, CDK12 (aa686-1082)/Cyclin K complex (Homo sapiens, UniProt Q9NYV4); experiment: CDK12 inhibition assay (Caliper/LabChip EZ Reader kinase assay); format: biochemical; settings: Table 1; CDK12 (aa686-1082)/Cyclin K 50 nM, ATP 2 mM, 3 hr at 27° C.
T1 construct: CDK12 (aa686-1082)/Cyclin K complex
Experimental: (§1) Compounds of the invention were assayed for inhibition of CDK7, CDK9, CDK12, and CDK2 activity at Biortus Biosciences (Jiangyin, Jiangsu Province, P.R. of China) using kinase assays for each CDK developed with a Caliper/LabChip EZ Reader (Perkin Elmer, Waltham, MA).
(§2) Furthermore, the CDK9 inhibition assay used CDK9/Cyclin T1 complex (8 nM) and “5-FAM-CDK9tide” peptide substrate (2 μM, synthesized fluorophore-labeled peptide with the following sequence: 5-FAM-GSRTPMY-NH2 where 5-FAM is defined above and NH2 signifies a C-terminal amide) with 10 mM MgCl2 in the buffer composition listed above. […] Additionally, the CDK2 inhibition assay used CDK2/Cyclin E1 complex (0.5 nM) and “5-FAM-CDK7tide” ([…]) as defined above, with 2 mM MgCl2 in the buffer composition listed above.

[2] = biological target: CDK9/Cyclin T1 complex (Homo sapiens, UniProt P50750); experiment: CDK9 inhibition assay (Caliper/LabChip EZ Reader kinase assay); format: biochemical; settings: Table 1; CDK9/Cyclin T1 8 nM, ATP 2 mM, 15 min at 27° C.
Experimental: as §1, §2

[3] = system: A673 cells; experiment: Inhibition of proliferation of A673 cells (CyQUANT, 72 hour); format: cell-based, human; settings: A673 cells, 72 hour, CyQUANT, read-out: Inhibition of Proliferation of A673 Cells (calculated IC50)
Experimental: A673 cells are a cell line derived from human […] Ewing's sarcoma. Representative compounds of the invention were tested at different concentrations (from […]; 0.5 log serial dilutions) for their ability to inhibit the proliferation of A673 cells. Known CDK inhibitors dinaciclib or N-((1S,3R)-3-((5-chloro-4-(1H-indol-3-yl)pyrimidin-2-yl)amino)cyclohexyl)-5-((E)-4-(dimethylamino)but-2-enamido)picolinamide and triptolide were used as positive controls. Cells were grown in Dulbecco's Modified Eagle's Medium, +10% FBS+1 mM Sodium Pyruvate. The cells were cultured at 37° C. in a humidified chamber in the presence of 5% CO2. Proliferation assays were conducted over a 72 hour time period. CyQUANT® (Life Technologies, Chicago, IL USA) was used to assess the anti-proliferative effects of the compounds following manufacturer's directions and utilizing the reagents supplied with the CyQUANT® kit.

[4] = biological target: CDK2/Cyclin E1 complex (Homo sapiens, UniProt P24941); experiment: CDK2 inhibition assay (Caliper/LabChip EZ Reader kinase assay); format: biochemical; settings: Table 1; CDK2/Cyclin E1 0.5 nM, ATP 2 mM, 35 min at 27° C.
Experimental: as §1, §2

[5] = biological target: CDK7/Cyclin H/MAT1 complex (Homo sapiens, UniProt P50613); experiment: CDK7 inhibition assay (Caliper/LabChip EZ Reader kinase assay); format: biochemical; settings: Table 1; CDK7/Cyclin H/MAT1 6 nM, ATP 2 mM, 35 min at 27° C.
Experimental: as §1, §2

Chain of CDK7/Cyclin H/MAT1 complex (P50613 whole entry, species assumed): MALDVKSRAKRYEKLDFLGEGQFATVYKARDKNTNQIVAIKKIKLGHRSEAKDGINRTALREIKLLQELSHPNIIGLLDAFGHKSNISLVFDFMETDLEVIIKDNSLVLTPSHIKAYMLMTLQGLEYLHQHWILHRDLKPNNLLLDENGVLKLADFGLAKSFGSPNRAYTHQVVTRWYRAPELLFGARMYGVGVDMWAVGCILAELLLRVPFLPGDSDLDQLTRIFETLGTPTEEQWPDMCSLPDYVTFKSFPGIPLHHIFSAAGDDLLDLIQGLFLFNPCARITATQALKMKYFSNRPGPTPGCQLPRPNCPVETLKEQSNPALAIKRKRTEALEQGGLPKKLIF
Chain of CDK7/Cyclin H/MAT1 complex (P51946 whole entry partner, species assumed): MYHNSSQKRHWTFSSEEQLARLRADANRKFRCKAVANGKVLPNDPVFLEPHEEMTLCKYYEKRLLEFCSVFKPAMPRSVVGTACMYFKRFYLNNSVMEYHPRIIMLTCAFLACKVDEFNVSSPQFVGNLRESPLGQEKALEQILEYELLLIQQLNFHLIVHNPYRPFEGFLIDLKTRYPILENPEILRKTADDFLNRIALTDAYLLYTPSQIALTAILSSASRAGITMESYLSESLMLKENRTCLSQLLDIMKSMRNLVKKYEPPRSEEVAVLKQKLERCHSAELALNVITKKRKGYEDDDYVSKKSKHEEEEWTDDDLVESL
Chain of CDK7/Cyclin H/MAT1 complex (P51948 whole entry partner, species assumed): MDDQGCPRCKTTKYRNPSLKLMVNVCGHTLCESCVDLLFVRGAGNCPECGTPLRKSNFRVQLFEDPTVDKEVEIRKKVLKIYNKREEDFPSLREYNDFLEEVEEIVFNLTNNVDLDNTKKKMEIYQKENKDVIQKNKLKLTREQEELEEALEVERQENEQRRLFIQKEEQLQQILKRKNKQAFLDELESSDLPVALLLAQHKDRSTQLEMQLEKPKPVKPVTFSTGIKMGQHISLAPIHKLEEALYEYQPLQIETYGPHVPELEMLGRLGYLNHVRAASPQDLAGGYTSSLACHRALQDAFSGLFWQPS
Chain of CDK9/Cyclin T1 complex (P50750 whole entry, species assumed): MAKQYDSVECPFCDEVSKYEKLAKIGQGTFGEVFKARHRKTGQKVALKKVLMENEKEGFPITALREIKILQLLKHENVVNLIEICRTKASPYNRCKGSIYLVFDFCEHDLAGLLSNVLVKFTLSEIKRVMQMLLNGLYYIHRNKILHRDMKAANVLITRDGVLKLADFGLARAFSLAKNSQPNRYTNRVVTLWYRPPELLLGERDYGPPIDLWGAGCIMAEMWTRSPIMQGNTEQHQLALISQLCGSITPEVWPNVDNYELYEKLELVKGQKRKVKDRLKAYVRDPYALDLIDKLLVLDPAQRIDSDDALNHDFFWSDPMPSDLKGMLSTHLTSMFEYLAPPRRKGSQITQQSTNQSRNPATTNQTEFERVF
Chain of CDK9/Cyclin T1 complex (O60563 whole entry partner, species assumed): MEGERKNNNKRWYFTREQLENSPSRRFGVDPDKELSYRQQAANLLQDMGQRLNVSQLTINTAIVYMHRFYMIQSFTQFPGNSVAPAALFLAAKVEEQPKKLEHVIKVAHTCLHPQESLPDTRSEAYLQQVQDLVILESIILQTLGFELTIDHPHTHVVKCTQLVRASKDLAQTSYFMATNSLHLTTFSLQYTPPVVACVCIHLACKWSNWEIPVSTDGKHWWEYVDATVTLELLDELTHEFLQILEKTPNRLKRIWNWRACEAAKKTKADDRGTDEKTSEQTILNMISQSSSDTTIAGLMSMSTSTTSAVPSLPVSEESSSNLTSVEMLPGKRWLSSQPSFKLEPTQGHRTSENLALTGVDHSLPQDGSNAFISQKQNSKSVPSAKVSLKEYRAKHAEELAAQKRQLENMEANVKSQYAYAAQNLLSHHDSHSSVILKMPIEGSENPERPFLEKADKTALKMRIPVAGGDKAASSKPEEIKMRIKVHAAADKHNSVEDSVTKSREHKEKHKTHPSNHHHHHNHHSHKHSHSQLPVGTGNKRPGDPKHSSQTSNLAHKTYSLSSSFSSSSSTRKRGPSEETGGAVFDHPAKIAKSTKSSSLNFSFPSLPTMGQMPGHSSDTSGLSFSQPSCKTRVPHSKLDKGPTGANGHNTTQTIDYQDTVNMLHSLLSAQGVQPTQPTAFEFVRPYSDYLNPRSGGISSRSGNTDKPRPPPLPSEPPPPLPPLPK
T1 sequence (Q9NYV4 686-1082, species assumed): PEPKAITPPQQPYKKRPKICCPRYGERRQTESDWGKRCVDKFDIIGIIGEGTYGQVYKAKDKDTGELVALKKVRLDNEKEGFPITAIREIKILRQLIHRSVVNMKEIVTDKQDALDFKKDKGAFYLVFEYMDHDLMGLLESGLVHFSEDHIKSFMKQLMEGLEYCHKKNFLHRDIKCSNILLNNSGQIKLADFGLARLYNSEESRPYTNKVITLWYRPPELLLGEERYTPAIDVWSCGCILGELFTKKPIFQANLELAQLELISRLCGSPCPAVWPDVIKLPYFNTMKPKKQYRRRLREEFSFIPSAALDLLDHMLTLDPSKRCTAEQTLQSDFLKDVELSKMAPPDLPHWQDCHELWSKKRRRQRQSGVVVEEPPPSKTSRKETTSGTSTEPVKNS
T1 sequence (O75909 whole entry partner, species assumed, the tested form may be a part): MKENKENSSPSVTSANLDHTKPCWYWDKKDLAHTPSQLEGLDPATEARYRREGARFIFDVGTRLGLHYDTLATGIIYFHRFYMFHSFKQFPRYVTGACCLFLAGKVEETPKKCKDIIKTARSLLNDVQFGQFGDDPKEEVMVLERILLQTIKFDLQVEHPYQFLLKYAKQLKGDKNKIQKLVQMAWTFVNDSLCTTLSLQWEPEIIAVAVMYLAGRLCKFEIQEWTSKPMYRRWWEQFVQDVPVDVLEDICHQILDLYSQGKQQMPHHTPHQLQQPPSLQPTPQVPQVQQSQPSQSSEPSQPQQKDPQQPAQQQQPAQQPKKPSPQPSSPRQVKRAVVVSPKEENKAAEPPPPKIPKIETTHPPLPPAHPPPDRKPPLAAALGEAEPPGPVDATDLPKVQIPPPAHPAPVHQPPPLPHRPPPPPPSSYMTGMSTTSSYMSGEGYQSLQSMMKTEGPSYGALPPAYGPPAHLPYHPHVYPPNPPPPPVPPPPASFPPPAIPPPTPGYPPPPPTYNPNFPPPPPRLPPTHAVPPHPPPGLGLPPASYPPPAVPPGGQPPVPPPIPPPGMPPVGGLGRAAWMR

IC50 [1] [nM]	IC50 [2] [nM]	IC50 [4] [nM]	IC50 [5] [nM]	Compound	IC50 ([3]; Homo sapiens, A673, 72 h) [nM]	IC50 [3] [nM]
200 to 5000	200 to 5000	200 to 5000	< 20	CC[C@H]1CC[C@H](Nc2ncc(C(F)(F)F)c(-c3c[nH]c4ccccc34)n2)CN1 [Compound 217]	20 to 200	–
200 to 5000	200 to 5000	> 5000	20 to 200	CC(C)(O)CCc1ccc2c(-c3nc(N[C@H]4CCCNC4)ncc3C(F)(F)F)c[nH]c2c1 [Compound 242, 2-methyl-4-[3-[2-[[(3S)-3-piperidyl]amino]-5-(trifluoromethyl)pyrimidin-4-yl]-1H-indol-6-yl] butan-2-ol]	20 to 200	–
200 to 5000	> 5000	> 5000	< 20	N#Cc1cn(-c2ccc3c(-c4nc(NC5CCCNC5)ncc4C(F)(F)F)c[nH]c3c2)cn1 (centres unmarked) [Compound 249]	20 to 200	–
> 5000	> 5000	> 5000	20 to 200	FC(F)(F)c1cnc(NC2CNCc3ccccc32)nc1-c1c[nH]c2ccccc12 (centres unmarked) [Compound 215]	200 to 5000	–
200 to 5000	200 to 5000	200 to 5000	< 20	Cn1cc(-c2ccc3c(-c4nc(N[C@H]5CCCNC5)ncc4C(F)(F)F)c[nH]c3c2)cc1C#N [Compound 225, 1-methyl-4-[3-[2-[[(3S)-3-piperidyl]amino]-5-(trifluoromethyl)pyrimidin-4-yl]-1H-indol-6-yl] pyrrole-2-carbonitrile]	20 to 200	–
20 to 200	200 to 5000	200 to 5000	< 20	CC1(C)CNC[C@@H](Nc2ncc(C(F)(F)F)c(-c3c[nH]c4ccccc34)n2)C1 [Compound 243, N-[(3S)-5,5-dimethyl-3-piperidyl]-4-(1H-indol-3-yl)-5-(trifluoromethyl) pyrimidin-2-amine]	< 20	–
> 5000	> 5000	> 5000	200 to 5000	COC(C)c1cnc(N[C@H]2CCCNC2)nc1-c1c[nH]c2ccccc12 (some centres unmarked) [Compound 247]	200 to 5000	–
200 to 5000	200 to 5000	200 to 5000	< 20	FC(F)(F)c1cnc(N[C@H]2CCCNC2)nc1-c1c[nH]c2cc(-c3ccncc3)ccc12 [Compound 224, N-[(3S)-3-piperidyl]-4-[6-(4-pyridyl)-1H-indol-3-yl]-5-(trifluoromethyl) pyrimidin-2-amine]	20 to 200	–
200 to 5000	200 to 5000	200 to 5000	< 20	O=C([C@H]1CC[C@H](Nc2ncc(C(F)(F)F)c(-c3c[nH]c4ccccc34)n2)CN1)N1CCCC1 [Compound 228]	20 to 200	–
> 5000	> 5000	200 to 5000	20 to 200	CNC(=O)C1CNCC(Nc2ncc(C(F)(F)F)c(-c3c[nH]c4ccccc34)n2)C1 (single isomer, unassigned) [Compound 252]	–	200 to 5000
200 to 5000	200 to 5000	200 to 5000	< 20	CCc1cnc(N[C@H]2CCCNC2)nc1-c1n[nH]c2cc(C#N)ccc12 [Compound 275, (S)-3-(5-ethyl-2-(piperidin-3-ylamino)pyrimidin-4-yl)-1H-indazole-6-carbonitrile]	20 to 200	–
200 to 5000	200 to 5000	200 to 5000	< 20	CS(=O)(=O)Cc1ccc2c(-c3nc(N[C@H]4CCCNC4)ncc3C(F)(F)F)c[nH]c2c1 [Compound 219, 4-[6-(methylsulfonylmethyl)-1H-indol-3-yl]-N-[(3S)-3-piperidyl]-5-(trifluoromethyl) pyrimidin-2-amine]	20 to 200	–
200 to 5000	200 to 5000	200 to 5000	< 20	Cc1n[nH]cc1-c1ccc2c(-c3nc(N[C@H]4CCCNC4)ncc3C(F)(F)F)c[nH]c2c1 [Compound 229, 4-[6-(3-methyl-1H-pyrazol-4-yl)-1H-indol-3-yl]-N-[(3S)-3-piperidyl]-5-(trifluoromethyl) pyrimidin-2-amine]	< 20	–
> 5000	> 5000	200 to 5000	200 to 5000	FC(F)(F)c1cnc(NC2CNCc3ccccc32)nc1-c1c[nH]c2ccccc12 (centres unmarked) [Compound 216]	–	200 to 5000

Continued, compound first:

Compound	IC50 [1] [nM]	IC50 [2] [nM]	IC50 [4] [nM]	IC50 [5] [nM]	IC50 ([3]; Homo sapiens, A673, 72 h) [nM]	IC50 [3] [nM]
CC(C)(O)Cn1cc(-c2ccc3c(-c4nc(N[C@H]5CCCNC5)ncc4C(F)(F)F)c[nH]c3c2)cn1 [Compound 214, 2-methyl-1-[4-[3-[2-[[(3S)-3-piperidyl]amino]-5-(trifluoromethyl)pyrimidin-4-yl]-1H-indol-6-yl]pyrazol-1-yl] propan-2-ol]	200 to 5000	200 to 5000	200 to 5000	20 to 200	20 to 200	–
Ic1cnc(N[C@H]2CCCNC2)nc1-c1c[nH]c2ccccc12 [Compound 147]	200 to 5000	200 to 5000	20 to 200	< 20	–	< 20
O[C@H]1CC[C@@H](c2cccc3c(-c4nc(N[C@H]5CCCNC5)ncc4C(F)(F)F)c[nH]c32)CC1 [Compound 207]	200 to 5000	200 to 5000	200 to 5000	< 20	< 20	–
Cc1nn(C)cc1-c1cccc2c(-c3nc(N[C@H]4CCCNC4)ncc3C(F)(F)F)c[nH]c12 [Compound 171]	200 to 5000	200 to 5000	200 to 5000	< 20	< 20	–
O=C(c1ccc2c(-c3nc(N[C@H]4CCCNC4)ncc3C(F)(F)F)c[nH]c2c1)N1CC[C@H](O)C1 [Compound 204, [(3S)-3-hydroxypyrrolidin-1-yl]-[3-[2-[[(3S)-3-piperidyl]amino]-5-(trifluoromethyl)pyrimidin-4-yl]-1H-indol-6-yl]methanone]	200 to 5000	> 5000	> 5000	< 20	200 to 5000	–
CC[C@@H]1CC[C@H](Nc2ncc(C(F)(F)F)c(-c3c[nH]c4ccccc34)n2)CN1 [Compound 211]	200 to 5000	200 to 5000	200 to 5000	20 to 200	20 to 200	–
Fc1cc2[nH]cc(-c3nc(N[C@H]4CCCNC4)ncc3Cl)c2cc1F [Compound 111]	20 to 200	20 to 200	200 to 5000	< 20	20 to 200	–
Clc1cnc(N[C@@H]2CN3CCC2CC3)nc1-c1c[nH]c2ccccc12 [Compound 131, (S)—N-(5-chloro-4-(1H-indol-3-yl)pyrimidin-2-yl)quinuclidin-3-amine]	> 5000	> 5000	> 5000	> 5000	200 to 5000	–
Brc1cnc(NC2CCCNC2)nc1-c1c[nH]c2ccccc12 (stereo in doubt) [Compound 133]	20 to 200	200 to 5000	20 to 200	< 20	< 20	–
C#Cc1cnc(N[C@H]2CCCNC2)nc1-c1c[nH]c2ccccc12 [Compound 194]	200 to 5000	200 to 5000	200 to 5000	< 20	< 20	–
CC(C)(O)CCc1cccc2c(-c3nc(N[C@H]4CCCNC4)ncc3C(F)(F)F)c[nH]c12 [Compound 191]	200 to 5000	200 to 5000	200 to 5000	< 20	–	< 20
CC(=O)c1cnc(N[C@H]2CCCNC2)nc1-c1c[nH]c2ccccc12 [Compound 208]	200 to 5000	> 5000	> 5000	20 to 200	20 to 200	–
N#Cc1cnc(N[C@H]2CCCNC2)nc1-c1c[nH]c2ccccc12 [Compound 157]	200 to 5000	200 to 5000	200 to 5000	< 20	< 20	–
CC1(C)CCNC[C@H]1Nc1ncc(C(F)(F)F)c(-c2c[nH]c3ccccc23)n1 (single isomer, unassigned) [Compound 210]	> 5000	> 5000	> 5000	200 to 5000	200 to 5000	–
